Data reported in patent publication US20120295907A1, “INSECTICIDAL COMPOUNDS” (SYNGENTA CROP PROTECTION, LLC, priority 2009, published 2012).

How the values were obtained:
Assay type in all cases: in vivo
Thrips tabaci = Thrips tabaci (Onion Thrips) sunflower leaf disc spray test; conditions: foliar, 168 h, 200 ppm spray on sunflower leaf discs, population of mixed ages, 7 days, mortality
Spodoptera littoralis = Spodoptera littoralis (Egyptian Cotton Leafworm) cotton leaf disc spray test; conditions: foliar, 72 h, 200 ppm spray on cotton leaf discs, L1 larvae, mortality, feeding behavior, growth regulation 3 DAT
Diabrotica balteata = Diabrotica balteata (Corn Root Worm) artificial diet MTP test; conditions: 120 h, 200 ppm (concentration in well 18 ppm), L2 larvae, 5 days, larval mortality, growth regulation
Myzus persicae = Myzus persicae (Green Peach Aphid) sunflower leaf disc spray test; conditions: foliar, 144 h, 200 ppm spray on sunflower leaf discs, aphid population of mixed ages, 6 DAT, mortality
Tetranychus urticae = Tetranychus urticae (Two-Spotted Spider Mite) bean leaf disc spray test; conditions: foliar, 192 h, 200 ppm spray on bean leaf discs, mite populations of mixed ages, 8 days, egg, larval and adult mortality, read-out: control of Tetranychus urticae
Heliothis virescens = Heliothis virescens (Tobacco Budworm) egg test on artificial diet; conditions: 96 h, 200 ppm (concentration in well 18 ppm), eggs 0-24 h old on artificial diet, 4 days, egg mortality, larval mortality, growth regulation
Plutella xylostella = Plutella xylostella (Diamond Back Moth) artificial diet MTP test; conditions: 144 h, 200 ppm (concentration in well 18 ppm), L2 larvae, 6 days, larval mortality, growth regulation

Measured: pest or weed control at 200 ppm

CCc1cc(C(F)(C(F)(F)F)C(F)(F)C(F)(F)F)cc(C)c1NC(=O)c1cccc(NC(=O)c2ccc(F)cc2Cl)c1OC (stereo not drawn) [A3, N-[2-ethyl-4-(1,2,2,3,3,3-hexafluoro-1-trifluoromethylpropyl)-6-methylphenyl]-3-(4-fluoro-2-chlorobenzoylamino)-2-methoxybenzamide]
not listed: Heliothis virescens | Plutella xylostella
≥ 80%: all other assays above

CCc1cc(C(F)(C(F)(F)F)C(F)(F)C(F)(F)F)cc(C)c1NC(=O)c1cccc(NC(=O)c2ccc(C#N)cc2)c1OC (stereo not drawn) [A4, N-[2-ethyl-4-(1,2,2,3,3,3-hexafluoro-1-trifluoromethylpropyl)-6-methyl-phenyl]-3-(4-cyanobenzoylamino)-2-methoxybenzamide]
≥ 80%: all assays above

CCc1cc(C(F)(C(F)(F)F)C(F)(F)C(F)(F)F)cc(C)c1NC(=O)c1cccc(NC(=O)c2ccnc(Cl)c2)c1OC (stereo not drawn) [A10]
≥ 80%: all assays above

CCc1cc(C(F)(C(F)(F)F)C(F)(F)C(F)(F)F)cc(C)c1NC(=O)c1cccc(NC(=O)c2ccc(Cl)nc2)c1OC (stereo not drawn) [A17]
≥ 80%: all assays above

CCc1cc(C(F)(C(F)(F)F)C(F)(F)C(F)(F)F)cc(C)c1NC(=O)c1cccc(NC(=O)c2ccc([N+](=O)[O-])cc2)c1OC (stereo not drawn) [A18]
≥ 80%: all assays above

CCc1cc(C(F)(C(F)(F)F)C(F)(F)C(F)(F)F)cc(C)c1NC(=O)c1cccc(NC(=O)c2ccc([N+](=O)[O-])cc2C)c1OC (stereo not drawn) [A22]
not listed: Heliothis virescens
≥ 80%: all other assays above

COc1c(NC(=O)c2ccccc2C)cccc1C(=O)Nc1c(Cl)cc(C(F)(C(F)(F)F)C(F)(F)C(F)(F)F)cc1Br (stereo not drawn) [B4]
≥ 80%: all assays above

COc1c(NC(=O)c2ccc(SC)cc2)cccc1C(=O)Nc1c(Cl)cc(C(F)(C(F)(F)F)C(F)(F)C(F)(F)F)cc1Br (stereo not drawn) [B26]
≥ 80%: all assays above

COc1ccc(C(=O)Nc2cccc(C(=O)Nc3c(Cl)cc(C(F)(C(F)(F)F)C(F)(F)C(F)(F)F)cc3Br)c2OC)cc1 (stereo not drawn) [B28]
not listed: Heliothis virescens
≥ 80%: all other assays above

COc1c(NC(=O)c2ccccc2Br)cccc1C(=O)Nc1c(Cl)cc(C(F)(C(F)(F)F)C(F)(F)C(F)(F)F)cc1Br (stereo not drawn) [B36]
≥ 80%: all assays above

COc1c(NC(=O)c2cc(C)nn2C)cccc1C(=O)Nc1c(Cl)cc(C(F)(C(F)(F)F)C(F)(F)C(F)(F)F)cc1Br (stereo not drawn) [B42]
≥ 80%: all assays above

COc1c(NC(=O)c2ccncc2)cccc1C(=O)Nc1c(Cl)cc(C(F)(C(F)(F)F)C(F)(F)C(F)(F)F)cc1Br (stereo not drawn) [B54]
not listed: Heliothis virescens
≥ 80%: all other assays above

COc1c(NC(=O)c2ccncc2Cl)cccc1C(=O)Nc1c(Cl)cc(C(F)(C(F)(F)F)C(F)(F)C(F)(F)F)cc1Br (stereo not drawn) [B66]
≥ 80%: all assays above

COc1c(NC(=O)c2ccccc2[N+](=O)[O-])cccc1C(=O)Nc1c(Cl)cc(C(F)(C(F)(F)F)C(F)(F)C(F)(F)F)cc1Br (stereo not drawn) [B80]
≥ 80%: all assays above

COc1c(NC(=O)c2ccncc2C)cccc1C(=O)Nc1c(Cl)cc(C(F)(C(F)(F)F)C(F)(F)C(F)(F)F)cc1Br (stereo not drawn) [B82]
≥ 80%: all assays above

COc1c(NC(=O)c2ccnc(C)c2Cl)cccc1C(=O)Nc1c(Cl)cc(C(F)(C(F)(F)F)C(F)(F)C(F)(F)F)cc1Br (stereo not drawn) [B93]
≥ 80%: all assays above

COc1c(NC(=O)c2cncnc2)cccc1C(=O)Nc1c(Cl)cc(C(F)(C(F)(F)F)C(F)(F)C(F)(F)F)cc1Br (stereo not drawn) [B111]
≥ 80%: all assays above

COc1c(NC(=O)c2ccnc(F)c2)cccc1C(=O)Nc1c(Cl)cc(C(F)(C(F)(F)F)C(F)(F)C(F)(F)F)cc1Br (stereo not drawn) [B151]
≥ 80%: all assays above

COc1c(NC(=O)c2cc(F)ccc2F)cccc1C(=O)Nc1c(Cl)cc(C(F)(C(F)(F)F)C(F)(F)C(F)(F)F)cc1Br (stereo not drawn) [B153]
≥ 80%: all assays above

COc1c(NC(=O)c2ccc(Cl)cc2Cl)cccc1C(=O)Nc1c(Cl)cc(C(F)(C(F)(F)F)C(F)(F)C(F)(F)F)cc1Br (stereo not drawn) [B155]
≥ 80%: all assays above

COc1c(NC(=O)c2cccc(Cl)c2C)cccc1C(=O)Nc1c(Cl)cc(C(F)(C(F)(F)F)C(F)(F)C(F)(F)F)cc1Br (stereo not drawn) [B156]
≥ 80%: all assays above

COc1c(NC(=O)c2cc(F)cc(F)c2)cccc1C(=O)Nc1c(Cl)cc(C(F)(C(F)(F)F)C(F)(F)C(F)(F)F)cc1Br (stereo not drawn) [B168]
≥ 80%: all assays above

COc1c(NC(=O)c2ccc([N+](=O)[O-])c(N)c2)cccc1C(=O)Nc1c(Cl)cc(C(F)(C(F)(F)F)C(F)(F)C(F)(F)F)cc1Br (stereo not drawn) [B174]
≥ 80%: all assays above

CCc1cc(C(F)(C(F)(F)F)C(F)(F)F)cc(C)c1NC(=O)c1cccc(NC(=O)c2ccc(F)cc2Cl)c1OC [J27]
not listed: Spodoptera littoralis
≥ 80%: all other assays above
